Calls of active or inactive are those of the source.
How the values were obtained:
[1] = reduction of Shn3 3'UTR-driven luciferase in osteoblasts – cell-based, Clone20 osteoblasts, firefly luciferase, cherry-picked, dose response (AID 624132); format: functional;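 also: firefly luciferase luminescence from reporter carrying the Shn3 3'UTR in osteoblasts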
[2] = loss of viability in HepG2 cells – cell-based, CellTiter-Glo, cherry-picked, cytotoxicity control for Shn3 inhibitor project, dose response (AID 624134); format: functional
[3] = non-specific 3'UTR reporter inhibition in Clone20-Shn3RL – cell-based, Renilla luciferase, cherry-picked, counter-screen for Shn3 inhibitor project, dose response (AID 624133); format: functional
H9c2 = test: cells; format: functional, cell-based; details: Rattus norvegicus, H9c2, Myocardium;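 also: confirmatory concentration-response retest of ultra-high-throughput screening hits for modulation of myocardial damage; cell death induced by hydrogen peroxide oxidative stress; compound pretreatment for 60 min then peroxide exposure for 2 h; potency is for protecting the cells against peroxide damage rather than for killing them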
P388/ADR = test: cells; format: functional; details: Mus musculus
SN12K1 = test: cells; format: functional; details: Homo sapiens
P388 = test: cells; format: functional; details: Mus musculus
[4] = Trypanosoma cruzi growth suppression in host cells – NIH3T3 host cells, beta-gal luminescence, confirmation (AID 2044); format: functional, cell-based;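 also: intracellular parasites grown in NIH/3T3 mouse fibroblasts as host cells; luminescent beta-galactosidase reporter signal from transgenic T. cruzi replicating inside host cells; inhibitors lower the luminescence signal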
[5] = microbe, parasite or virus in culture; format: functional; details: Mycobacterium tuberculosis
[6] = NIH3T3 cell viability loss – ATP luminescence, mouse fibroblasts, counter-screen, dose response (AID 2010); format: functional, cell-based;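 also: cells exposed to compound for about 90 hours before reading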
[7] = target: T1, RNA-binding protein pos-1 (Caenorhabditis elegans, UniProt G5EF15); test: disruptors of C. elegans POS-1 RNA interaction – biochemical, fluorescence polarization, dose response (AID 1964);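 also: purified POS-1 fused to maltose binding protein made in E. coli; potency of compounds blocking POS-1 binding to fluorescent RNA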
T1 sequence (G5EF15 whole entry): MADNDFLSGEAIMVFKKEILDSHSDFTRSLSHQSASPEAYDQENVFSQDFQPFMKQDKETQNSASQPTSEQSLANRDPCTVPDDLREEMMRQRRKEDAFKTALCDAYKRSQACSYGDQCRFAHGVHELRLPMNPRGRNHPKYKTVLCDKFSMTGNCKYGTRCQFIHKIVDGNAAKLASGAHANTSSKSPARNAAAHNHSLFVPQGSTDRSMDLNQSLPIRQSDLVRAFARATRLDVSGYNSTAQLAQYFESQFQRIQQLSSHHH

[8] = target: T2, Zinc finger protein mex-5 (Caenorhabditis elegans, UniProt Q9XUB2); test: potency of MEX-5 RNA-binding blockers – biochemical, C. elegans, fluorescence polarization, dose response (AID 1960)
T2 sequence (Q9XUB2 whole entry): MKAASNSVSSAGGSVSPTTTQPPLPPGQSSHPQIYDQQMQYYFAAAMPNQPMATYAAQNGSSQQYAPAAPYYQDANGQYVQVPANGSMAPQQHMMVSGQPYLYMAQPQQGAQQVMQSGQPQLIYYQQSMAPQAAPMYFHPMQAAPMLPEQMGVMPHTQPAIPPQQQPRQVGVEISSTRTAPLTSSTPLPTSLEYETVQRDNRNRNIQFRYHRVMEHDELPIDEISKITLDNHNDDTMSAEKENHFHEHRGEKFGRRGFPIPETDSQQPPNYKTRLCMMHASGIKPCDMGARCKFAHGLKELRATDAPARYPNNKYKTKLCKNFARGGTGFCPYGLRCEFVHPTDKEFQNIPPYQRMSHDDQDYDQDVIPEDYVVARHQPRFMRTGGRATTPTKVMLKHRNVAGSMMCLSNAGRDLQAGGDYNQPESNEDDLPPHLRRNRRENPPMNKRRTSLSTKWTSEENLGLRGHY

[9] = Luminescence Cell-Based Dose Response HTS to Identify Inhibitors of 5'UTR Stem-Loop Driven Prion Protein mRNA Translation in H4 Neuroglioblastoma Cells. [Related pubchem assays: 1827 (Project Summary), 1813 (Primary HTS)]; format: functional
[10] = target: T3, Heat shock factor protein 1 (Mus musculus, UniProt P38532); test: decrease of HSF1-responsive luciferase luminescence – cell-based, NIH3T3, dose retest, confirmation (AID 2382); format: functional;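 also: NIH3T3 fibroblasts with HSF1-driven luciferase reporter stressed by proteasome inhibitor MG132; luminescence from HSF1-driven luciferase expression after 8 hours of MG132 stress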
T3 sequence (P38532 whole entry): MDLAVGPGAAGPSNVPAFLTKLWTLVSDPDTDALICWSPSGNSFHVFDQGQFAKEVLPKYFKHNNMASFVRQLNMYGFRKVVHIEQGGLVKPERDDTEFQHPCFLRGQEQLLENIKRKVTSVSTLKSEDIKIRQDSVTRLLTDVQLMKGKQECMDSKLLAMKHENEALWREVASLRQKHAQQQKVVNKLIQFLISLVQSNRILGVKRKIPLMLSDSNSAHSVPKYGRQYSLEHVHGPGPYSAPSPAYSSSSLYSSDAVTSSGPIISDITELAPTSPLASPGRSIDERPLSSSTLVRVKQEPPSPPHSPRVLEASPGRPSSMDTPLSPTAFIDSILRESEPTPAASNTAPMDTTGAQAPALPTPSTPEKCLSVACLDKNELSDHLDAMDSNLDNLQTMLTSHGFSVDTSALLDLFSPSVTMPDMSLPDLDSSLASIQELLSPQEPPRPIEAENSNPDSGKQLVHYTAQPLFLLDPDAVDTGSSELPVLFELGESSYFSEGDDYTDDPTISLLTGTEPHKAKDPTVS

[11] = alpha-synuclein stem-loop luciferase translation blockers – H4 neuroglioma cells, luminescence, confirmation (AID 1988); format: functional, cell-based
[12] = tested on: Streptococcus sp. 'group A'; test: Streptococcus pyogenes SK(-)GAS viability under kanamycin – luminescence, BacTiterGlo, confirmation, counter-screen for streptokinase expression inhibitor project, dose response (AID 1900); format: functional, organism-based
Streptokinase A = target: T4, Streptokinase A (Streptococcus pyogenes serotype M1, UniProt P10520); test: viability-normalized secreted streptokinase activity reduction – plasminogen activation absorbance, OD405, dose response (AID 1914); format: functional, Streptococcus pyogenes M1 GAS;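 also: secreted streptokinase activity via plasminogen activation per viability signal from cell pellet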
T4 sequence (P10520 whole entry): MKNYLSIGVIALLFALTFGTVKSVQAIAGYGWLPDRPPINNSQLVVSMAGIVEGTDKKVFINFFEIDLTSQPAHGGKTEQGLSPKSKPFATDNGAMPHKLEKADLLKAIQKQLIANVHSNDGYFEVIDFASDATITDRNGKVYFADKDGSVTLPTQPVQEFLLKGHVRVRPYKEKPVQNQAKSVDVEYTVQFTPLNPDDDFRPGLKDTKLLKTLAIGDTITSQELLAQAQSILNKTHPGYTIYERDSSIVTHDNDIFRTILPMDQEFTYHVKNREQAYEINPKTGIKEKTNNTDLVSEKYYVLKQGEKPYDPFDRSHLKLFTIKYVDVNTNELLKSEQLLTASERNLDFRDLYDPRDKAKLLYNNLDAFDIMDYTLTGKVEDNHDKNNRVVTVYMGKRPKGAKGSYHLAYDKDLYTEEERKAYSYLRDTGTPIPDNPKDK

Streptococcus = test: GAS UMAA2166 growth inhibition – luminescence, BacTiterGlo, counter-screen for streptokinase expression inhibitor project, dose response (AID 1915); format: functional, organism-based;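 also: potency for reduction of bacterial viability or growth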
Cytochrome P450 2D6 = Cytochrome P450 2D6 (Homo sapiens, UniProt P10635);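 also: CYP2D6 member of a cytochrome P450 panel assay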
[13] = Luminescence Cell-Based Dose Response HTS to Identify Activators of Luciferase Translation or Activity in H4 […] Cells. [Related pubchem assays: 1829 (Project Summary), 1814 (Primary HTS)]; format: functional
Cytochrome P450 1A2 = target: T5, Cytochrome P450 1A2 (Homo sapiens, UniProt P05177);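 also: PubChem cytochrome P450 panel assay, CYP1A2 panel member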
T5 sequence (P05177 whole entry): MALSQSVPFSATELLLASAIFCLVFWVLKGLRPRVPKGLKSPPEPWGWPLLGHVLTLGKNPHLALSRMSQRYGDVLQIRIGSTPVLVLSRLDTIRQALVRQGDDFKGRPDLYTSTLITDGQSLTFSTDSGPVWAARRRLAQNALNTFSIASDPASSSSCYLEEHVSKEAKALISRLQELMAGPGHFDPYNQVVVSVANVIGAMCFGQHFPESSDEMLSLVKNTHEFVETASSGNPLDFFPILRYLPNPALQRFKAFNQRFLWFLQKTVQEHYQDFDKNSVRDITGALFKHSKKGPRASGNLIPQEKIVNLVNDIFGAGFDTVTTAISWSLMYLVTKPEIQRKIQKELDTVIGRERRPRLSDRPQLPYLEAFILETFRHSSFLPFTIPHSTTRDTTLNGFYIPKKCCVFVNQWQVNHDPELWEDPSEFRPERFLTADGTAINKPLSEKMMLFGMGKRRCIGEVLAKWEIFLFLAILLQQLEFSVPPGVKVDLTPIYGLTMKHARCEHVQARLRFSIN

Cytochrome P450 2C9 = Cytochrome P450 2C9 (Homo sapiens, UniProt P11712)
Cytochrome P450 2C9, sequence (P11712 whole entry): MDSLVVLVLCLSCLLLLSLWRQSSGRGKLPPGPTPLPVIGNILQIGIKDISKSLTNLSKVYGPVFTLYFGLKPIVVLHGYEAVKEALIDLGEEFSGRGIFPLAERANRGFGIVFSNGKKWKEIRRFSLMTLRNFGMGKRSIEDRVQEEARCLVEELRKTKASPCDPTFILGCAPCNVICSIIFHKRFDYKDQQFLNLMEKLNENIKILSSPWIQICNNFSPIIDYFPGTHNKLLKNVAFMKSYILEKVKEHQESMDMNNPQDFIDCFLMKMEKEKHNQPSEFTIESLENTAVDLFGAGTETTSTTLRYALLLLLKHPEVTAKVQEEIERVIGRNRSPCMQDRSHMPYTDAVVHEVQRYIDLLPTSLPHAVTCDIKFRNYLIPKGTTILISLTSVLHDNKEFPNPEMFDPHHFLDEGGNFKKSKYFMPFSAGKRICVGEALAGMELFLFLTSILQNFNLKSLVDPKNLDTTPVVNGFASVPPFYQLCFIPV

Cytochrome P450 2D6, sequence (P10635 whole entry): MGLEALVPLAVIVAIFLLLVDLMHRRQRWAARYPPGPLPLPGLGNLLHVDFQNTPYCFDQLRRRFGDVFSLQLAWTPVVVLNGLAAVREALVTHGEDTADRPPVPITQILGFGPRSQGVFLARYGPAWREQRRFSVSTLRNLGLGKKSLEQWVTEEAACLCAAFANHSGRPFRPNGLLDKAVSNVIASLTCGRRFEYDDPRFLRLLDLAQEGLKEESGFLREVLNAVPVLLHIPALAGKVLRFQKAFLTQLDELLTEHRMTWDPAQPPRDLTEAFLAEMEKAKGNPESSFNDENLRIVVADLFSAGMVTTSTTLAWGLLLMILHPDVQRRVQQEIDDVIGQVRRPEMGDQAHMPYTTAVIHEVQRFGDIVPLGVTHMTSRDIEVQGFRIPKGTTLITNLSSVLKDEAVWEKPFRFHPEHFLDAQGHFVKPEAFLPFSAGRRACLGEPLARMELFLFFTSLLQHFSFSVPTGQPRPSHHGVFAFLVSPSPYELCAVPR

CS(=O)(=O)c1ccc(C(=O)OCC(=O)Nc2cccnc2Cl)cc1[N+](=O)[O-]
AC50 [1]: 9.09 µM (active)
AC50 [2]: > 70 µM (inactive)
AC50 [3]: 12.9 µM (active)

COc1cc2c(C#CCCO)c(-c3ccsc3)oc(=O)c2cc1OC
IC50 (H9c2): 20.7 µM (active)

Cc1ccc(OP2(=O)Oc3ccc4ccccc4c3CN2c2ccc(Cl)cc2)cc1C (stereo not drawn)
GI50 (P388/ADR): > 100 µM (inactive)
GI50 (SN12K1): > 100 µM (inactive)
GI50 (P388): > 100 µM (inactive)

C=CC1(NC(=O)c2ccccc2)CCC(C(C)(C)C)CC1 (stereo not drawn)
GI50 (P388/ADR): 22.2 µM (inactive)
GI50 (SN12K1): 32.4 µM (inactive)
GI50 (P388): 12.2 µM (inactive)

c1ccc2cc3c(cc2c1)OP1(Oc2cccc4cccnc24)(O3)Oc2cc3ccccc3cc2O1
GI50 (P388/ADR): 1.42 µM (inactive)
GI50 (SN12K1): 3.31 µM (inactive)
GI50 (P388): 1.2 µM (inactive)

COc1ccc(C(C)=O)cc1COC(=O)Cc1nnc(O)c2ccccc12
IC50 (H9c2): > 79 µM (inactive)

COc1ccccc1OCC(=O)Nc1sc2c(c1C(=O)NCC1CCCO1)CCC2 (stereo not drawn)
IC50 (H9c2): 30.4 µM (inactive)

CCOC(=O)C[n+]1ccc2c([nH]c3cc(OC)ccc32)c1C
GI50 (P388/ADR): 35.1 µM (inactive)
GI50 (SN12K1): > 80.2 µM (inactive)
GI50 (P388): 38.9 µM (inactive)

CCOc1cccc(-c2nn3c(-c4ccccn4)nnc3s2)c1
IC50 (H9c2): > 79 µM (inactive)

S=C(NCCCCCCNC(=S)Nc1c2ccccc2nc2ccccc12)Nc1c2ccccc2nc2ccccc12
GI50 (P388/ADR): 65 µM (inactive)
GI50 (SN12K1): 6.22 µM (inactive)
GI50 (P388): 44.5 µM (inactive)

O=C(Cc1ccc([N+](=O)[O-])cc1)Nc1cc(C(F)(F)F)cc(C(F)(F)F)c1
EC50 [4]: 2.18 µM (active)
CC50 [5]: 8.99 µM (active)
EC50 [6]: 7.77 µM (active)

COc1ccc(C2C(C#N)=C(N)OC3=C2C(=O)CC(C)(C)C3)c(OC)c1OC (stereo not drawn)
EC50 [7]: > 300 µM (not active)
EC50 [8]: > 300 µM (not active)

COc1ccc(C(=O)Nc2nc(-c3ccc([N+](=O)[O-])cc3)c(-c3ccccc3)s2)cc1
EC50 [7]: > 300 µM (not active)
EC50 [8]: > 300 µM (not active)

Cc1c(NC(=O)Cn2[nH]c(=O)c3ccccc3c2=O)c(=O)n(-c2ccccc2)n1C
IC50 (H9c2): 38.5 µM (inactive)

O=C(Nc1ccc(N2CCOCC2)c(Cl)c1)c1ccc([N+](=O)[O-])o1
AC50 [1]: 6.23 µM (active)
AC50 [2]: 24.9 µM (active)
AC50 [3]: 14.7 µM (active)

COC1=CC(=O)c2ccccc2C1=O [2-Methoxy-1,4-naphthoquinone]
CC50 [5]: 12.7 µM (active)

c1ccc(-c2cn3nc(-c4ccccc4)sc3n2)cc1
EC50 [9]: 0.583 µM (active)
EC50 [10]: < 0.16 µM (active)
EC50 [11]: 0.402 µM (inconclusive)

O=C(/C=C/c1ccccc1)NC(NC(=S)Nc1ccc(Cl)cc1)C(Cl)(Cl)Cl (stereo not drawn)
EC50 [12]: 5.79 µM (active)
EC50 (Streptokinase A): > 150 µM (not active)
EC50 [4]: 1.08 µM (active)
EC50 [6]: > 60 µM (not active)
EC50 (Streptococcus): > 150 µM (not active)
AC50 [1]: 5.13 µM (active)
AC50 [2]: 26.7 µM (active)
AC50 [3]: 30.4 µM (active)
AC50 (Cytochrome P450 2D6): 7.94 µM (inconclusive)

C=CCN=C(S)N1CCN(c2cccc(C(F)(F)F)c2)CC1
EC50 [7]: > 300 µM (not active)
EC50 [8]: > 300 µM (not active)

CN(C)S(=O)(=O)c1cccc(NC(=O)c2cccc(S(=O)(=O)N3CCc4ccccc43)c2)c1
AC50 [1]: 3.92 µM (active)
AC50 [2]: 60.9 µM (active)
AC50 [3]: 11.7 µM (active)

COc1ccc(-c2csc(NC(C)c3nc4cc(Cl)c(N5CCCCC5)cc4n3CCCO)n2)cc1 (stereo not drawn)
CC50 [5]: > 40 µM (active)

O=S(=O)(c1ccc(Cl)cc1)c1cc(O)ccc1O
IC50 (H9c2): 12.4 µM (active)

CC1CCCC(C)N1/N=C/c1c[nH]c2ccc(Br)cc12 (stereo not drawn)
CC50 [5]: 24.4 µM (active)

CC(C)(C)c1nc(SCC(=O)Nc2nc3c(s2)CCCC3)c2ccccc2n1
EC50 [4]: 1.45 µM (active)
CC50 [5]: 38.7 µM (active)
EC50 [6]: 12.5 µM (active)

CN(C)c1ccc(-c2noc(-c3ccccc3O)n2)cc1
EC50 [9]: 10.5 µM (inconclusive)

CC(C)C1C(=O)N(Cc2cn(CCC3OCCO3)nn2)CCS(=O)(=O)N1Cc1ccc(-c2ccc(Cl)cc2)cc1 (stereo not drawn)
AC50 [1]: 2.13 µM (active)
AC50 [2]: > 70 µM (inactive)
AC50 [3]: 2.83 µM (active)

COc1ccccc1C(=O)Nc1nc(-c2ccc3c(c2)OCCO3)cs1
IC50 (H9c2): > 79 µM (inactive)

CCc1ccc2oc(-c3cc(/N=C/c4cccc(OC)c4O)ccc3O)nc2c1
EC50 [4]: 2.45 µM (active)
CC50 [5]: > 40 µM (active)
EC50 [6]: > 30 µM (not active)

COc1cccc(CN2CCN(C(=O)c3cc(-c4cccnc4)nc4ccc(C)cc34)CC2)c1
IC50 (H9c2): 11.6 µM (active)

CC1=C(C#N)C(=O)N(C)C(=O)/C1=C\N
EC50 [7]: > 300 µM (not active)
EC50 [8]: > 300 µM (not active)

CC(C)c1nc2oc3ccccc3c(=O)c2c(=O)n1-c1ccccc1
EC50 [13]: 63.4 µM (active)
AC50 (Cytochrome P450 1A2): 39.8 µM (inconclusive)
AC50 (Cytochrome P450 2C9): 1.78 µM (inconclusive)

O=[N+]([O-])c1cnccc1-n1nnc2ccccc21
GI50 (SN12K1): 27.7 µM (inactive)
GI50 (P388): 7.96 µM (inactive)
